We go through 4 compounds from EPA's ToxRefDB 2.

Data set [1] deals with rat. As to conditions: Other (NonGuideline or Guideline Not Listed), sprague dawley, Oral, Gavage/Intubation, dose end: 7 day, group: cannot be grouped.
Data set [2] has as its system rat. As to conditions: Carcinogenicity, fischer, Oral, Feed, dose end: 78 week, group: systemic.
The test system of data set [3] is rat. The following applies: Subchronic oral toxicity in rodents, fischer, Feed, dose end: 8 week, group: systemic.
In data set [4] the test system is mouse. As to conditions: Subchronic oral toxicity in rodents, b6c3f1, Feed, dose end: 8 week, group: systemic.
In data set [5] the test system is mouse. The following applies: Carcinogenicity, b6c3f1, Oral, Feed, dose end: 78 week, group: systemic.
In data set [6] the test system is mouse. The following applies: Carcinogenicity, b6c3f1, Oral, Feed, dose end: 2 year, group: systemic.
Data set [7] deals with mouse. As to conditions: Subchronic oral toxicity in rodents, b6c3f1, Feed, dose end: 13 week, group: systemic, systemic / in life observation / body weight / body weight + systemic / in life observation / food consumption / food consumption.
Data set [8] relates to rat. The following applies: Subchronic oral toxicity in rodents, fischer, Feed, dose end: 13 week, group: systemic.
The test system of data set [9] is rat. As to conditions: Combined chronic toxicity/carcinogenicity, fischer, Oral, Feed, dose end: 2 year, group: systemic.
Data set [10] has as its system dog. As to conditions: Subchronic oral toxicity in dogs, beagle, Capsule, dose end: 90 day, group: systemic, systemic / clinical chemistry / alanine aminotransferase (alt/sgpt) / alanine aminotransferase (alt/sgpt) + systemic / clinical chemistry / ….
In data set [11] the test system is rat. As to conditions: Subchronic oral toxicity in rodents, sprague dawley, Feed, dose end: 90 day, group: systemic.
The subject of data set [12] is dog. The following applies: Chronic toxicity, beagle, Oral, Capsule, dose end: 52 week, group: systemic.
Another data set deals with rabbit. The following applies: Prenatal developmental toxicity study, new zealand white, Oral, Gavage/Intubation, dose end: 19 GD.
Data set [13] has as its system rat. As to conditions: Prenatal developmental toxicity study, wistar, Oral, Gavage/Intubation, dose end: 16 GD.
In data set [14] the test system is rat. As to conditions: Multigenerational reproductive toxicity study, sprague dawley, Oral, Feed, dose end: 2 generation.
The subject of data set [15] is rat. As to conditions: Combined chronic toxicity/carcinogenicity, sprague dawley, Oral, Feed, dose end: 24 month, group: systemic.
[16] abbreviates: systemic / clinical chemistry / alanine aminotransferase (alt/sgpt) / alanine aminotransferase (alt/sgpt) + systemic / clinical chemistry / ….
Where [17] appears, read: systemic / in life observation / body weight / body weight gain + systemic / in life observation / clinical signs / defecation + systemic / ….
Setting [18] is: systemic / in life observation / body weight / body weight.
[19] abbreviates: systemic / in life observation / body weight / body weight + systemic / pathology microscopic / urinary bladder / carcinoma + systemic / ….
The mark [20] stands for this setting: systemic / in life observation / body weight / body weight + systemic / in life observation / mortality / mortality.
The mark [21] stands for this setting: systemic / in life observation / body weight / body weight + systemic / pathology microscopic / gallbladder / hyperplasia.
The mark [22] stands for this setting: systemic / in life observation / body weight / body weight + systemic / pathology microscopic / gallbladder / hyperplasia + systemic / ….
Setting [23] is: systemic / in life observation / body weight / body weight + systemic / in life observation / food consumption / food consumption.
[24] abbreviates: systemic / in life observation / food consumption / food consumption.
Where [25] appears, read: systemic / in life observation / food consumption / food consumption + systemic / pathology microscopic / lung / adenoma/carcinoma combined….
[26] abbreviates: systemic / clinical chemistry / aminopyrine-n-demethylase / aminopyrine-n-demethylase.
The mark [27] stands for this setting: systemic / organ weight / liver / absolute + systemic / clinical chemistry / alanine aminotransferase (alt/sgpt) / alanine aminotransferase….
The mark [28] stands for this setting: group: developmental, systemic / in life observation / body weight / fetal weight.
Where [29] appears, read: group: developmental, systemic / in life observation / body weight / fetal weight + developmental / developmental malformation / bone / hole(s).
The mark [30] stands for this setting: group: maternal, systemic / in life observation / body weight / body weight gain + systemic / in life observation / food consumption / food consumption.
Setting [31] is: group: developmental, developmental / developmental malformation / bone / delayed ossification + developmental / developmental malformation / bone / full ….
Where [32] appears, read: group: maternal, reproductive / offspring survival early / offspring survival early other / NOS + systemic / in life observation / body weight / body weight ….
The mark [33] stands for this setting: group: offspring, systemic / in life observation / body weight / offspring (pup) weight gain + systemic / pathology gross / liver / discolored + systemic / ….
Where [34] appears, read: group: parental, systemic / organ weight / liver / nos + systemic / pathology gross / liver / accentuated lobular pattern + systemic / pathology gross / ….
[35] abbreviates: group: reproductive, reproductive / offspring survival early / litter size / litter size.
Setting [36] is: systemic / hematology / platelet / platelet.
[37] abbreviates: systemic / pathology microscopic / adrenal gland / vacuolization + systemic / pathology microscopic / liver / fatty change + systemic / ….

`CCOc1cccc(-n2cc(C(=O)N3CCN(c4cc(C(=O)[O-])c5ccccc5c4)CC3)nc2-c2ccc(C)cc2)c1.[Na+]`: in the data set on rat [1] (setting [16]), the LOAEL is more than 500 mg/kg/day and the no observed adverse effect level (NOAEL) is not below 500 mg/kg/day. Moreover, in the data set with rat [1] (setting [17]), the LEL turned out to be 10 mg/kg/day and the NEL is less than 10 mg/kg/day.
`Nc1ccc(Cl)cc1N` [4-Chloro-1,2-diaminobenzene]: the LOAEL with rat [2] (setting [18]) turned out to be 250 mg/kg/day; with rat [3] (setting [18]), 500 mg/kg/day; in the data set on mouse [4] (setting [18]) it was 1500 mg/kg/day; in the data set with mouse [5] (setting [21]) it was 1050 mg/kg/day. The NOAEL with rat [2] (setting [18]) is less than 250 mg/kg/day; with rat [3] (setting [20]), 50 mg/kg/day; in the data set with mouse [4] (setting [20]), 150 mg/kg/day; with mouse [5] (setting [21]) it was less than 1050 mg/kg/day. The LEL in the data set on rat [2] (setting [19]) stood at 250 mg/kg/day; in the data set with rat [3] (setting [18]) it was 500 mg/kg/day; with mouse [4] (setting [18]), 1500 mg/kg/day; in the data set on mouse [5] (setting [22]), 1050 mg/kg/day. In addition, the NEL was less than 250 mg/kg/day in the data set with rat [2] (setting [19]), 50 mg/kg/day in the data set with rat [3] (setting [20]), 150 mg/kg/day in the data set with mouse [4] (setting [20]) and less than 1050 mg/kg/day in the data set with mouse [5] (setting [22]).
For the compound `Oc1cccc2cccnc12` [8-Hydroxyquinoline], the LOAEL with mouse [6] (setting [23]) is more than 396 mg/kg/day; in the data set with mouse [7], 900 mg/kg/day; in the data set on rat [8] (setting [23]), 300 mg/kg/day; in the data set with rat [9] (setting [25]), more than 143 mg/kg/day. The NOAEL is not below 396 mg/kg/day with mouse [6] (setting [23]), 450 mg/kg/day with mouse [7], 150 mg/kg/day in the data set on rat [8] (setting [23]) and not below 143 mg/kg/day in the data set with rat [9] (setting [25]). For the same compound, the LEL in the data set with mouse [6] (setting [24]) was found to be 217 mg/kg/day; in the data set on mouse [7] it was 900 mg/kg/day; in the data set with rat [8] (setting [24]), 150 mg/kg/day; in the data set with rat [9] (setting [24]) it was 73 mg/kg/day. Moreover, the NEL in the data set with mouse [6] (setting [24]) is less than 217 mg/kg/day; with mouse [7], 450 mg/kg/day; with rat [8] (setting [23]) it was 75 mg/kg/day; in the data set on rat [9] (setting [24]), less than 73 mg/kg/day.
As to `CCCCC(O)(Cn1cncn1)c1ccc(Cl)cc1Cl` (stereo not given) [Hexaconazole], the LEL with dog [10] is 25 mg/kg/day; in the data set on rat [11] (setting [26]), 2.5 mg/kg/day; with dog [12] (systemic / organ weight / liver / absolute + systemic / pathology microscopic / liver / lipid deposition + systemic / clinical chemistry / …) it was 10 mg/kg/day; in the data set with rabbit (setting [28]), 50 mg/kg/day; with rabbit (setting [30]) it was 100 mg/kg/day; with rat [13] (setting [31]), 2.5 mg/kg/day. The LEL in the data set on rat [13] (setting [32]) came to 250 mg/kg/day; with rat [14] (setting [33]) it was 50 mg/kg/day; in the data set on rat [14] (group: parental, systemic / pathology microscopic / liver / fatty change) it was 5 mg/kg/day; in the data set with rat [14] (setting [35]), 50 mg/kg/day; in the data set on rat [15] (setting [36]), 0.47 mg/kg/day. Moreover, the LOAEL amounted to 25 mg/kg/day with dog [10]; 25 mg/kg/day in the data set with rat [11] (systemic / pathology microscopic / adrenal gland / vacuolization + systemic / pathology microscopic / liver / fatty change); 10 mg/kg/day with dog [12] (systemic / organ weight / liver / absolute + systemic / pathology microscopic / liver / lipid deposition); 50 mg/kg/day in the data set on rabbit (setting [28]); 100 mg/kg/day with rabbit (group: maternal, systemic / in life observation / body weight / body weight gain); 2.5 mg/kg/day with rat [13] (setting [31]). Moreover, the LOAEL came out at 250 mg/kg/day in the data set on rat [13] (setting [32]); 50 mg/kg/day in the data set with rat [14] (setting [33]); 50 mg/kg/day in the data set with rat [14] (setting [34]); 50 mg/kg/day in the data set on rat [14] (setting [35]); 4.7 mg/kg/day in the data set on rat [15] (setting [37]). Besides, the NEL in the data set with dog [10] was 5 mg/kg/day; with rat [11] (setting [26]), less than 2.5 mg/kg/day; in the data set on dog [12] (setting [27]) it was 2 mg/kg/day; with rabbit (setting [29]) it was 25 mg/kg/day; in the data set with rabbit (setting [30]), 50 mg/kg/day; with rat [13] (setting [31]), less than 2.5 mg/kg/day. In addition, the NEL in the data set with rat [13] (setting [32]) is 25 mg/kg/day; in the data set on rat [14] (setting [33]), 5 mg/kg/day; in the data set on rat [14] (setting [34]), 1 mg/kg/day; in the data set on rat [14] (setting [35]), 5 mg/kg/day; with rat [15] (setting [36]) it was less than 0.47 mg/kg/day. In addition, the NOAEL in the data set with dog [10] was 5 mg/kg/day; in the data set with rat [11] (systemic / pathology microscopic / adrenal gland / vacuolization + systemic / clinical chemistry / alanine aminotransferase (alt/sgpt) / …), 2.5 mg/kg/day; in the data set on dog [12] (setting [27]), 2 mg/kg/day; with rabbit (setting [29]) it was 25 mg/kg/day; in the data set on rabbit (setting [30]) it was 50 mg/kg/day; in the data set on rat [13] (setting [31]), less than 2.5 mg/kg/day. For the same compound, the no observed adverse effect level (NOAEL) in the data set with rat [13] (setting [32]) came out at 25 mg/kg/day; with rat [14] (setting [33]), 5 mg/kg/day; with rat [14] (setting [34]), 5 mg/kg/day; with rat [14] (setting [35]), 5 mg/kg/day; with rat [15] (setting [37]), 0.47 mg/kg/day.

Broadly, the LOAEL is the lowest dose or exposure tested at which an adverse effect was seen. One may read the NOAEL as the highest tested level that showed no adverse finding.
